According to US5821258A, “Phenylbenzimidazole derivatives” (priority 1994, dated 1998):
In brackets after ≈: the same amount, converted by molar mass. Structures can show the parent of a compound that is named as a salt.

These compounds were tested on B16 melanoma cells (assay: in vitro inhibitory activity on tumor cell growth, B16 melanoma cells (Test Example 2)). Settings: 72 h; B16 mouse melanoma cells, 37° C., 3 days, 5% CO2; concentration for 50% growth inhibitory effect; read-out: IC50 (anti-tumor activity).
Type: cell-based
Method: The anticancer activity of each compound will be described. […] This test was carried out by measuring an in vitro inhibitory activity on tumor cell growth. That is to say, the B16 melanoma cells of a mouse were planted on a culture plate having 96 cells, and a compound was then added after one day and the cells were cultured at 37° C. for 3 days in 5% CO2. Next, a compound concentration (IC50) necessary to accomplish a 50% growth inhibitory effect was determined in accordance with a procedure described in Cancer. Res., Vol. 48, p. 589-601 (1988). The unit of the drug concentration was μg/ml. The result of distamycin is also simultaneously shown as a comparative example.

Structure (SMILES) | IC50 [µg/mL]
Cn1cc(NC(=O)c2cc(NC(=O)c3cc(NC=O)cn3C)cn2C)cc1C(=O)NCCC(=N)N [Distamycin, distamycin, reference compound] | 36 (≈ 74.8 µM)

Same assay, conditions: B16 mouse melanoma cells, 37° C., 3 days, 5% CO2; concentration for 50% growth inhibitory effect

Structure (SMILES) | IC50 (anti-tumor activity) [µg/mL]
N=C(N)NCC(=O)Nc1cccc(-c2nc3cc(C(=O)Nc4ccc(N(CCCl)CCCl)cc4)ccc3[nH]2)c1 [Compound 2001, 1H-2-[3-(guanidinoacetylamino)phenyl]benzimidazole-5-[N-[4-[N,N-bis(2-chloroethyl)amino)phenyl]]carboxyamide dihydrochloride] | 0.82
Cc1cc(NC(=O)c2ccc3[nH]c(-c4cccc(NC(=O)CCCNC(=N)N)c4)nc3c2)ccc1N(CCCl)CCCl [Compound 2014, 1H-2-[3-[[4-(guanidino)butyryl]amino]phenyl]benzimidazole-5-[N-[3-methyl-4-[N,N-bis(2-chloroethyl)amino]phenyl]]carboxyamide dihydrochloride] | 1.18
N=C(N)NCC(=O)Nc1cccc(-c2nc3cc(C(=O)Nc4ccc(N(CCCl)CCCl)c(Cl)c4)ccc3[nH]2)c1 [Compound 2006, 1H-2-[3-(guanidinoacetylamino)phenyl]benzimidazole-5-[N-[3-chloro-4-[N,N-bis(2-chloroethyl)amino]phenyl]]carboxyamide dihydrochloride] | 0.65
N=C(N)NCCCC(=O)Nc1cccc(-c2nc3cc(C(=O)Nc4ccc(N(CCCl)CCCl)c(Cl)c4)ccc3[nH]2)c1 [Compound 2016, 1H-2-[3-[[4-(guanidino)butyryl]amino]phenyl]benzimidazole-5-[N-[3-chloro-4-[N,N-bis(2-chloroethyl)amino]phenyl]]carboxyamide dihydrochloride] | 2.08
CN(C)CCCNC(=O)c1ccc2[nH]c(-c3ccc(NC(=O)CCCc4ccc(N(CCCl)CCCl)cc4)cc3)nc2c1 [Compound 29, 1H-2-[4-[[4-[4-[N,N-bis(2-chloroethyl)amino]phenyl]butyryl]amino]phenyl]benzimidazole-5-[N-[3-(dimethylamino)propyl]]carboxyamide] | 3.05 (≈ 4.89 µM)
N=C(N)NCC(=O)Nc1ccc(-c2nc3cc(C(=O)Nc4cccc(N(CCCl)CCCl)c4)ccc3[nH]2)cc1 [Compound 1010, 1H-2-[4-(guanidinoacetylamino)phenyl]benzimidazole-5-[N-[3-[N,N-bis(2-chloroethyl)amino]phenyl]]carboxyamide] | 3.19 (≈ 5.62 µM)
N=C(N)CCNC(=O)c1ccc2[nH]c(-c3cccc(NC(=O)CCCc4ccc(N(CCCl)CCCl)cc4)c3)nc2c1 [Compound 47, 1H-2-[3-[[4-[4-[N,N-bis(2-chloroethyl)amino]phenyl]butyryl]amino]phenyl]benzimidazole-5-[N-(2-amidinoethyl]carboxyamide hydrochloride] | 0.38
CN(C)CCCC(=O)Nc1cccc(-c2nc3cc(C(=O)Nc4ccc(N(CCCl)CCCl)cc4)ccc3[nH]2)c1 [Compound 2031, 1H-2-[3-[[4-(dimethylamino)butyryl]amino]phenyl]benzimidazole-5-[N-[4-[N,N-bis(2-chloroethyl)amino)phenyl]]carboxyamide dihydrochloride] | 1.56
Cc1cc(NC(=O)c2ccc3[nH]c(-c4cccc(NC(=O)Cc5cccnc5)c4)nc3c2)ccc1N(CCCl)CCCl [Compound 2063, 1H-2-[3-(3-pyridylacetylamino)phenyl]benzimidazole-5-[N-[3-methyl-4-[N,N-bis(2-chloroethyl)amino]phenyl]]carboxyamide] | 3.48 (≈ 5.79 µM)
Cc1cc(NC(=O)c2ccc3[nH]c(-c4cccc(NC(=O)CC[S+](C)C)c4)nc3c2)ccc1N(CCCl)CCCl.[I-] [Compound 2044, 2-[N-[3-[5-[N-[3-methyl-4-[N,N-bis(2-chloroethyl)amino]phenyl]carbamoyl]-1Hbenzimidazole-2-yl]phenyl]]carbamoylethyl-dimethylsulfonium iodide] | 0.72
O=C(CCN1CCOCC1)Nc1cccc(-c2nc3cc(C(=O)Nc4ccc(N(CCCl)CCCl)cc4)ccc3[nH]2)c1 [Compound 2051, 1H-2-[3-[(3-morpholinopropionyl)amino]phenyl]benzimidazole-5-[N-[4-[N,N-bis(2-chloroethyl)amino]phenyl]]carboxyamide hydrochloride] | 0.49
O=C(CCN1CCOCC1)Nc1cccc(-c2nc3cc(C(=O)Nc4ccc(N(CCCl)CCCl)c(Cl)c4)ccc3[nH]2)c1 [Compound 2054, 1H-2-[3-[(3-morpholinopropionyl)amino]phenyl]benzimidazole-5-[N-[3-chloro-4-[N-bis(2-chloroethyl)amino]phenyl]]carboxyamide hydrochloride] | 0.41
Cc1cc(NC(=O)c2ccc3[nH]c(-c4cccc(NC(=O)CCN5CCOCC5)c4)nc3c2)ccc1N(CCCl)CCCl [Compound 2053, 1H-2-[3-[(3-morpholinopropionyl)amino]phenyl]benzimidazole-5-[N-[4-[N,N-bis(2-chloroethyl)]amino-3-methyl]phenyl]carboxyamide hydrochloride] | 0.33
N=C(N)NCC(=O)Nc1ccc(-c2nc3cc(C(=O)Nc4ccc(N(CCCl)CCCl)cc4)ccc3[nH]2)cc1 [Compound 1001, 1H-2-[4-(guanidinoacetylamino)phenyl]benzimidazole-5-[N-[4-[N,N-bis(2-chloroethyl)amino)phenyl]]carboxyamide dihydrochloride] | 0.36
N=C(N)CCNC(=O)c1ccc2[nH]c(-c3ccc(NC(=O)CCCc4ccc(N(CCCl)CCCl)cc4)cc3)nc2c1 [Compound 2, 1H-2-[4-[[4-[4-[N,N-bis(2-chloroethyl)amino]phenyl]butyryl]amino]phenyl]benzimidazole-5-[N-(2-amidinoethyl]carboxyamide hydrochloride] | 0.58
C[S+](C)CCC(=O)Nc1cccc(-c2nc3cc(C(=O)Nc4ccc(N(CCCl)CCCl)c(Cl)c4)ccc3[nH]2)c1 [Compound 2046, 2-[N-[3-[5-[N-[3-chloro-4-[N,N-bis(2-chloroethyl)amino]phenyl]carbamoyl]-1H-benzimidazole-2-yl]phenyl]carbamoylethyl]dimethylsulfonium iodide] | 0.39
Cc1cc(NC(=O)c2ccc3[nH]c(-c4cccc(NC(=O)CNC(=N)N)c4)nc3c2)ccc1N(CCCl)CCCl [Compound 2004, 1H-2-[3-(guanidinoacetylamino)phenyl]benzimidazole-5-[N-[3-methyl-4-[N,N-bis(2-chloroethyl)amino]phenyl]]carboxyamide dihydrochloride] | 0.53
N=C(N)NCCCC(=O)Nc1cccc(-c2nc3cc(C(=O)Nc4ccc(N(CCCl)CCCl)cc4)ccc3[nH]2)c1 [Compound 2011, 1H-2-[3-[4-(guanidino)butyryl]amino]phenyl]benzimidazole-5-[N-[4-[N,N-bis(2-chloroethyl)amino)phenyl]]carboxyamide dihydrochloride] | 0.97
C[S+](C)CCC(=O)Nc1cccc(-c2nc3cc(C(=O)Nc4ccc(N(CCCl)CCCl)cc4)ccc3[nH]2)c1 [Compound 2041, 2-[N-[3-[5-[N-[4-[N,N-bis(2-chloroethyl)amino]phenylnyl]carbamoyl]-1H-benzimidazole-2-yl]phenyl]]carbamoylethyl-dimethylsulfonium iodide] | 0.37

These compounds were tested on poly d(A-T)-d(A-T) (assay: Linkage to DNA, Tm value comparison with and without compound (Test Example 1)). Settings: poly d(A-T)-d(A-T) in buffer; difference from Tm of the DNA alone.
Type: binding
Method: Investigation was made on the linkage of each compound to DNA. The test was carried out by comparing a Tm value in the case that the compound was added to the DNA solution with a Tm value in the case that no compound was added thereto.
That is to say, poly d(A-T)-d(A-T) was used as the DNA. This DNA was dissolved in a buffer solution and the compound was further added thereto, and the Tm value was then measured. On the other hand, the Tm of the DNA alone was measured, and a difference (ΔTm) was then calculated. For the measurement, a U-3200 model spectrophotometer made by Hitachi, Ltd. was used, and for the control of temperature, SPR-10 model made by Hitachi, Ltd. was used.

Structure (SMILES) | ΔTm [°C]
N=C(N)NCC(=O)Nc1cccc(-c2nc3cc(C(=O)Nc4ccc(N(CCCl)CCCl)cc4)ccc3[nH]2)c1 [Compound 2001, 1H-2-[3-(guanidinoacetylamino)phenyl]benzimidazole-5-[N-[4-[N,N-bis(2-chloroethyl)amino)phenyl]]carboxyamide dihydrochloride] | 14

Each compound was assayed on mouse colon cancer cells of Colon 26 (assay: Anti-tumor test in mice implanted with Colon 26 cells, tumor weight on 15th day (Test Example 3)). Settings: 10 mg/kg, tail vein on 1st day; Colon 26 s.c. in female CDF1 mouse; tumor weight on 15th day vs control 100%.
Type: in vivo
Method: A cell floating solution having 1×10^7 mouse colon cancer cells of Colon 26 per ml of HBSS (Hanks' Balanced Salt Solution) was prepared. Next, 0.1 ml of this cell floating solution was implanted in the side abdomen hypodermis of a female CDFl mouse (0 day). On the day after the tumor implantation (1st day), the weight of the mouse was measured, and a solution of a compound (a 5% glucose solution containing 5% Tween 80) was administered into the tail vein of the mouse. On the 15th day, the tumor was extracted, and its weight was then measured.
An average tumor weight ratio of each experimental sample was calculated as a T/C value on the assumption that the average tumor weight ratio of a control to which any compound was not administered was 100%.
The T/C values correspond to compound numbers, respectively, and each value in the parentheses represents the concentration of the drug at the time when its T/C value was obtained.

Structure (SMILES) | T/C [%]
N=C(N)NCC(=O)Nc1cccc(-c2nc3cc(C(=O)Nc4ccc(N(CCCl)CCCl)c(Cl)c4)ccc3[nH]2)c1 [Compound 2006, 1H-2-[3-(guanidinoacetylamino)phenyl]benzimidazole-5-[N-[3-chloro-4-[N,N-bis(2-chloroethyl)amino]phenyl]]carboxyamide dihydrochloride] | 21

Same assay, conditions: 20 mg/kg, tail vein on 1st day; Colon 26 s.c. in female CDF1 mouse; tumor weight on 15th day vs control 100%

Structure (SMILES) | T/C [%]
COc1cccc2c1C(=O)c1c(O)c3c(c(O)c1C2=O)C[C@@](O)(C(=O)CO)C[C@@H]3O[C@H]1C[C@H](N)[C@H](O)[C@H](C)O1 [Adriamycin, adriamycin, reference compound] | 29

Same assay, conditions: 30 mg/kg, tail vein on 1st day; Colon 26 s.c. in female CDF1 mouse; tumor weight on 15th day vs control 100%

Structure (SMILES) | T/C [%]
N=C(N)NCC(=O)Nc1cccc(-c2nc3cc(C(=O)Nc4ccc(N(CCCl)CCCl)cc4)ccc3[nH]2)c1 [Compound 2001, 1H-2-[3-(guanidinoacetylamino)phenyl]benzimidazole-5-[N-[4-[N,N-bis(2-chloroethyl)amino)phenyl]]carboxyamide dihydrochloride] | 13
